Experimental data: US5830697A, “P-glycoprotein mutant resistant to cyclosporin modulation” (The Board of Trustees of the Leland Stanford Junior …, priority 1997, dated 1998)
Where two headings read alike, the source gives them in different places. *1 amine or outer side, *2 acyl side, *3 side chain or, on linkers, in order; H or OH if unused. Where a SMILES comes first, the peptide text is derived from it. Bridges are numbered along the chain shown (N, C = ends). Roman numbers before positions name the chains, in order. [ ]: non-standard residue; d: D form. Actinocin(9to1) = Cc1c2oc3c(C)ccc(C(=O)[*:1])c3nc-2c(C(=O)[*:2])c(N)c1=O; NMeV = CN[C@H](C(=O)O)C(C)C; Sar = CNCC(=O)O

Assays:
Assay in all cases: Growth inhibition (MTT) assay, with or without MDR modulators
[1] = test system: MES-SA/DxP5002 (DxP) cells; details: for Fold resistance / Level of resistance of DxP cells to the cytotoxin compared with parental Dx5 (in words): DxP cells; for Dx5/DxP, fold of resistance difference in DxP cells compared with parental Dx5 cells: DxP vs Dx5
Method: Cells and Tissue Culture. […] Monolayer cultures of MES-SA cells and its variants were grown in McCoy's medium (Irvine Scientific, Santa Ana, Calif.) supplemented with 10% newborn calf serum (Gibco, Grand Island, N.Y.), 2 mM L-glutamine, and antibiotics(100 U/ml penicillin, 100 μg/ml streptomycin).
Growth Inhibition Assay. Approximately 8000 cells per well were seeded in 96 well plates and incubated with or without drugs for 72 hr at 37° C. in an atmosphere of 5% CO2. Growth inhibition was evaluated by the MTT colorimetric assay in triplicate or quadruplicate as previously described. The absorbance was measured with a ThermoMax microplate reader (Molecular Devices, Menlo Park, Calif.). […] The doubling times of MES-SA, D×5, and D×P were determined as previously described.
(§1) Reversal of MDR by Modulators. […] The modulation ratio was obtained by comparing IC50 s in the presence and absence of modulators.

[2] = test system: MES-SA/Dx5 (Dx5) cells; type: cell-based, human
Method: (§2) Cells and Tissue Culture. Details of the development and characterization of the human cell line MES-SA and its MDR variant MES-SA/Dx5 (D×5), which were derived from sarcoma elements of a uterine mixed Mullerian tumor, are described in Harker and Sikic (1985) Cancer Research 45:3810-3815. MES-SA/DxP5002 (DxP) cells were derived from Dx5.05 cells (D×5 cells selected and maintained at a DOX concentration of 0.5 μM) by step-wise selection in the presence of increasing DOX concentrations (from 40 nM up to 0.5 μM) and a constant PSC 833 concentration at 2 μM over a one-year period. Monolayer cultures of MES-SA cells and its variants were grown in McCoy's medium (Irvine Scientific, Santa Ana, Calif.) supplemented with 10% newborn calf serum (Gibco, Grand Island, N.Y.), 2 mM L-glutamine, and antibiotics(100 U/ml penicillin, 100 μg/ml streptomycin).
(§3) Growth Inhibition Assay. Approximately 8000 cells per well were seeded in 96 well plates and incubated with or without drugs for 72 hr at 37° C. in an atmosphere of 5% CO2. Growth inhibition was evaluated by the MTT colorimetric assay in triplicate or quadruplicate as previously described. The absorbance was measured with a ThermoMax microplate reader (Molecular Devices, Menlo Park, Calif.). The IC50 (drug concentration resulting in 50% inhibition of MTT dye formation, compared to controls) was determined directly from semi-logarithmic dose-response curves. The doubling times of MES-SA, D×5, and D×P were determined as previously described.
as §1

[3] = test system: MES-SA cells; type: cell-based, human; details: for IC50: Homo sapiens, read-out: IC50 of drug-sensitive MES-SA cells (values in parenthesis)
Method: as §2, §3, §1

[4] = no modulator, relative to MES-SA
[5] = MES-SA cells, no modulator, 72 hr MTT

Compound	Fold resistance [1, 4]	Dx5/DxP, fold of resistance difference in DxP cells compared with parental Dx5 cells [1]	Fold resistance [2, 4]	IC50 ([3]; MES-SA cells, 72 hr MTT)	Fold resistance [3, 5]	Level of resistance of DxP cells to the cytotoxin compared with parental Dx5 (in words) [1]	IC50 ([3]; MES-SA, 72 h)	Fold resistance ([1]; +2 μM PSC 833)	Fold resistance ([2]; +2 μM PSC 833)	Fold resistance ([3]; MES-SA cells, +2 μM PSC 833)
COc1cc(NS(C)(=O)=O)ccc1Nc1c2ccccc2nc2ccccc12 [Amsacrine]	2 fold	13 fold	26 fold	100 nM	1 fold	–	–	–	–	–
COc1cc2c(c(OC)c1OC)-c1ccc(OC)c(=O)cc1[C@@H](NC(C)=O)CC2 [Colchicine]	–	–	–	–	–	high levels of resistance	–	–	–	–
Cc1c2oc3c(C)ccc(C(=O)N[C@@H]4C(=O)N[C@H](C(C)C)C(=O)N5CCC[C@H]5C(=O)N(C)CC(=O)N(C)[C@@H](C(C)C)C(=O)O[C@@H]4C)c3nc-2c(C(=O)N[C@@H]2C(=O)N[C@H](C(C)C)C(=O)N3CCC[C@H]3C(=O)N(C)CC(=O)N(C)[C@@H](C(C)C)C(=O)O[C@@H]2C)c(N)c1=O [D actinomycin, dactinomycin] (I: T[dV]P[Sar][NMeV] / II: T[dV]P[Sar][NMeV]; ester I:1-I:C, II:1-II:C; linker I:N-II:N via Actinocin(9to1))	1 fold	183 fold	183 fold	–	1 fold	completely restored	0.3 nM	–	–	–
COc1cccc2c1C(=O)c1c(O)c3c(c(O)c1C2=O)C[C@@](O)(C(C)=O)C[C@@H]3O[C@H]1C[C@H](N)[C@H](O)[C@H](C)O1 [Daunorubicin]	25 fold	3 fold	75 fold	–	1 fold	slightly decreased	20 nM	–	–	–
COc1cc([C@@H]2c3cc4c(cc3[C@@H](O[C@@H]3O[C@@H]5CO[C@@H](C)O[C@H]5[C@H](O)[C@H]3O)[C@H]3COC(=O)[C@H]23)OCO4)cc(OC)c1O [Etoposide]	–	2 fold	42 fold	500 nM	1 fold	moderately decreased resistance	–	18 fold	1 fold	1 fold
